Test results published in patent US12642271B2, “Active compound combinations comprising a (thio)carboxamide derivative and a fungicidal compound” (Bayer CropScience Aktiengesellschaft, priority 2011, dated 2026).
Where “and” joins values, the source holds several entries; their conditions need not be identical. Identical values can stand only once. Like-named read-outs stand apart in the source and are kept apart here.

What was measured:
[1] = test system: Fusarium nivale (var. majus); test: Fusarium nivale (var. majus)-test (wheat)/preventive; settings: for pest or weed control at 40 ppm / pest or weed control at 20 ppm / pest or weed control at 80 ppm / pest or weed control at 10 ppm: Microdochium nivale, in Triticum aestivum, 120 h; for pest or weed control at 20 ppm: 20 ppm a.i.; for pest or weed control at 80 ppm: 80 ppm a.i.
Protocol: After the spray coating has been dried, the plants are slightly injured by using a sandblast and afterwards they are sprayed with a conidia suspension of Fusarium nivale (var. majus).
The plants are placed in the greenhouse under a translucent incubation cabinet at a temperature of approximately 10° C. and a relative atmospheric humidity of approximately 100%.
The test is evaluated 5 days after the inoculation.

Septoria tritici = test: Septoria tritici-test (wheat)/preventive; assay type: in vivo; settings: preventive, evaluated 21 days after inoculation
Leptosphaeria nodorum = Leptosphaeria nodorum test (wheat)/preventive; assay type: in vivo
Venturia inaequalis = test: Venturia test (apples)/preventive; settings: for pest or weed control at 1 ppm: 1 ppm a.i.
Protocol: After the spray coating has dried on, the plants are inoculated with an aqueous conidia suspension of the causal agent of apple scab (Venturia inaequalis) and then remain for 1 day in an incubation cabinet at approximately 20° C. and a relative atmospheric humidity of 100%.
The plants are then placed in a greenhouse at approximately 21° C. and a relative atmospheric humidity of approximately 90%.
The test is evaluated 10 days after the inoculation.

Alternaria solani = test: Alternaria test (tomatoes)/preventive; assay type: in vivo
[2] = test system: Blumeria graminis f.sp. hordei; test: Blumeria test (barley)/preventive; assay type: in vivo
Puccinia triticina = test: Puccinia triticina-test (wheat)/preventive; assay type: in vivo; settings: preventive, evaluated 8 days after inoculation
Sphaerotheca fuliginea = test: Sphaerotheca test (cucumbers)/preventive; assay type: in vivo
Phytophthora infestans = test: whole plant or invertebrate; assay type: in vivo
[3] = read-out: Efficacy in % found, Table 8e, 40 ppm a.i.
[4] = Zymoseptoria tritici, 504 h, application rate 10 ppm a.i., read-out: Efficacy in % found
[5] = Parastagonospora nodorum, 192 h, application rate 10 ppm, wheat, preventive, evaluated 8 days after inoculation, read-out: Efficacy in % found
[6] = Blumeria graminis, 168 h, Table 6f, 10 ppm a.i., read-out: Efficacy in % found
[7] = read-out: Efficacy in % found, Table 8c
[8] = read-out: Efficacy in % found, Table 8e
[9] = Phytophthora infestans, 72 h, read-out: Efficacy in % found

Fc1ccc([C@]2(Cn3cncn3)O[C@H]2c2ccccc2Cl)cc1 (racemic) [B1.12, epoxiconazole]
pest or weed control at 40 ppm [1, 3]: 0% | pest or weed control at 10 ppm (Septoria tritici; [4]): 0% | pest or weed control at 10 ppm (Leptosphaeria nodorum; Parastagonospora nodorum, 192 h, Table 9a, 10 ppm a.i., read-out: Efficacy in % found): 0% | pest or weed control at 10 ppm (Leptosphaeria nodorum; [5]): 29%

Cn1cc(C(=O)Nc2cccc3c2[C@@H]2CC[C@H]3C2=C(Cl)Cl)c(C(F)F)n1 (racemic) [B2.29, benzovindiflupyr]
Efficacy in % found (Venturia inaequalis; Table 2e, 0.1 ppm a.i.): 76% | Efficacy in % found ([1]; Table 8f, 120 ppm a.i.): 25% | Efficacy in % found (Alternaria solani; Table 3e, 0.5 ppm): 21%

CC(C)c1ccc(F)cc1CN(C(=O)c1c(C(F)F)nn(C)c1F)C1CC1 [A7, N-cyclopropyl-3-(difluoromethyl)-5-fluoro-N-(5-fluoro-2-isopropylbenzyl)-1-methyl-1H-pyrazole-4-carboxamide]
pest or weed control at 10 ppm (Septoria tritici; [4]): 71%

Cc1ccc(C(C)C)c(CN(C(=O)c2c(C(F)F)nn(C)c2F)C2CC2)c1 [A12, N-cyclopropyl-3-(difluoromethyl)-5-fluoro-N-(2-isopropyl-5-methylbenzyl)-1-methyl-1H-pyrazole-4-carboxamide]
pest or weed control at 10 ppm [2, 6]: 50% | pest or weed control at 40 ppm (Puccinia triticina; Puccinia triticina, 192 h, application rate 40 ppm a.i., read-out: Efficacy in % found): 89%

CC1(C)CCC(Cc2ccc(Cl)cc2)C1(O)Cn1cncn1 (centres unmarked) [B1.30, metconazole]
pest or weed control at 1 ppm (Venturia inaequalis; Venturia inaequalis, 240 h, read-out: Efficacy in % found, Table 2c): 38% | pest or weed control at 20 ppm [1, 7]: 13% | pest or weed control at 80 ppm [1, 8]: 0% | pest or weed control at 20 ppm (Puccinia triticina; Puccinia triticina, 192 h, application rate 20 ppm a.i., read-out: Efficacy in % found): 44% | pest or weed control at 80 ppm (Leptosphaeria nodorum; Parastagonospora nodorum, 192 h, application rate 80 ppm, wheat, preventive, evaluated 8 days after inoculation, read-out: Efficacy in % found): 44% | pest or weed control at 5 ppm (Sphaerotheca fuliginea; Podosphaera fuliginea, 168 h, Table 4d, 5 ppm a.i., read-out: Efficacy in % found): 77%

CCCC1COC(Cn2cncn2)(c2ccc(Cl)cc2Cl)O1 (centres unmarked) [B1.40, propiconazole]
pest or weed control at 20 ppm ([1]; read-out: Efficacy in % found, Table 8b): 0% | pest or weed control at 20 ppm (Leptosphaeria nodorum; Parastagonospora nodorum, 192 h, application rate 20 ppm, wheat, preventive, evaluated 8 days after inoculation, read-out: Efficacy in % found): 0% | pest or weed control at 2 ppm (Alternaria solani; Alternaria solani, 72 h, Table 3c, 2 ppm, read-out: Efficacy in % found): 0%

CC(C)(C)C(O)(CCc1ccc(Cl)cc1)Cn1cncn1 (centres unmarked) [B1.47, tebuconazole]
pest or weed control at 10 ppm ([1]; read-out: Efficacy in % found, Table 8c, 10 ppm a.i.): 25% | pest or weed control at 40 ppm [1, 3]: 0% | pest or weed control at 10 ppm [2, 6]: 50% | pest or weed control at 10 ppm ([2]; Blumeria graminis, 168 h, Table 6d, 10 ppm, read-out: Efficacy in % found): 33% | pest or weed control at 4 ppm (Puccinia triticina; Puccinia triticina, 192 h, application rate 4 ppm a.i., read-out: Efficacy in % found): 33% | pest or weed control at 40 ppm (Septoria tritici; Zymoseptoria tritici, 504 h, application rate 40 ppm a.i., read-out: Efficacy in % found): 71% | pest or weed control at 10 ppm (Leptosphaeria nodorum; [5]): 33%

Cn1cc(C(=O)Nc2ccc(F)cc2-c2ccc(Cl)c(Cl)c2)c(C(F)F)n1 [B2.1, bixafen]
Efficacy in % found ([1]; Table 8b, 10 ppm a.i.): 14% | Efficacy in % found (Puccinia triticina; application rate 40 ppm a.i.): 22% | Efficacy in % found (Septoria tritici; application rate 10 ppm a.i.): 29% | Efficacy in % found (Septoria tritici; application rate 40 ppm a.i.): 29% | Efficacy in % found (Leptosphaeria nodorum; Table 9a, 40 ppm a.i.): 0% | Efficacy in % found (Leptosphaeria nodorum; application rate 40 ppm, wheat, preventive, evaluated 8 days after inoculation): 0% | Efficacy in % found (Sphaerotheca fuliginea; Table 4d, 0.5 ppm a.i.): 67%

Cn1cc(C(=O)Nc2ccccc2-c2cc(F)c(F)c(F)c2)c(C(F)F)n1 [B2.8, fluxapyroxad]
Efficacy in % found (Venturia inaequalis; Table 2d, 0.25 ppm a.i.): 19% | Efficacy in % found (Puccinia triticina; application rate 10 ppm a.i.): 0% | Efficacy in % found (Puccinia triticina; application rate 40 ppm a.i.): 67% | Efficacy in % found (Septoria tritici; application rate 10 ppm a.i.): 0% | Efficacy in % found (Leptosphaeria nodorum; application rate 10 ppm, wheat, preventive, evaluated 8 days after inoculation): 0% | Efficacy in % found (Sphaerotheca fuliginea; Table 4d, 0.5 ppm a.i.): 0%

CC(C)CC(C)c1sccc1NC(=O)c1cn(C)nc1C(F)(F)F (centres unmarked) [B2.21, penthiopyrad]
pest or weed control at 0.5 ppm (Venturia inaequalis; Venturia inaequalis, 240 h, read-out: Efficacy in % found, Table 2d, 0.5 ppm a.i.): 0% | pest or weed control at 20 ppm [1, 7]: 13% | pest or weed control at 80 ppm [1, 8]: 0% | pest or weed control at 20 ppm ([2]; Blumeria graminis, 168 h, Table 6a, 20 ppm a.i., read-out: Efficacy in % found): 20% | pest or weed control at 80 ppm (Puccinia triticina; Puccinia triticina, 192 h, application rate 80 ppm a.i., read-out: Efficacy in % found): 78% | pest or weed control at 0.5 ppm (Sphaerotheca fuliginea; Podosphaera fuliginea, 168 h, Table 4d, 0.5 ppm a.i., read-out: Efficacy in % found): 0%

CCCCCCCCc1c(CC)nc2ncnn2c1N [B3.1, ametoctradin]
Efficacy in % found (Phytophthora infestans; Table 1a, 5 ppm a.i.): 48%

COC(=O)N(OC)c1ccccc1COc1ccn(-c2ccc(Cl)cc2)n1 [B3.17, pyraclostrobin]
pest or weed control at 1 ppm (Venturia inaequalis; Venturia inaequalis, 240 h, read-out: Efficacy in % found, Table 2b): 79% | pest or weed control at 40 ppm ([1]; read-out: Efficacy in % found, Table 8a, 40 ppm): 93% | pest or weed control at 10 ppm ([1]; read-out: Efficacy in % found, Table 8e, 10 ppm a.i.): 57% | pest or weed control at 10 ppm ([1]; read-out: Efficacy in % found, Table 8d, 10 ppm a.i.): 71% | pest or weed control at 40 ppm ([2]; Blumeria graminis, 168 h, Table 6b, 40 ppm a.i., read-out: Efficacy in % found): 20% | pest or weed control at 40 ppm (Leptosphaeria nodorum; Parastagonospora nodorum, 192 h, application rate 40 ppm, wheat, preventive, evaluated 8 days after inoculation, read-out: Efficacy in % found): 57% | pest or weed control at 1 ppm (Phytophthora infestans; [9]): 53% | pest or weed control at 2 ppm (Sphaerotheca fuliginea; Podosphaera fuliginea, 168 h, Table 4d, 2 ppm a.i., read-out: Efficacy in % found): 0%

O=C(NCc1ncc(C(F)(F)F)cc1Cl)c1c(Cl)cccc1Cl [B4.6, fluopicolide]
Efficacy in % found ([2]; Table 6f, 400 ppm a.i.): 13% | Efficacy in % found (Leptosphaeria nodorum; Table 9c, 100 ppm a.i.): 17% | Efficacy in % found (Phytophthora infestans; Table 1a, 1 ppm a.i.): 13%

N#Cc1c(Cl)c(Cl)c(Cl)c(C#N)c1Cl [B5.4, chlorothalonil]
pest or weed control at 12.5 ppm (Venturia inaequalis; Venturia inaequalis, 240 h, read-out: Efficacy in % found, Table 2a, 12.5 ppm a.i.): 35% | pest or weed control at 50 ppm (Phytophthora infestans; [9]): 75% | pest or weed control at 50 ppm (Alternaria solani; Alternaria solani, 72 h, Table 3a, 50 ppm a.i., read-out: Efficacy in % found): 35%

N#Cc1ccccc1NC(=O)c1snc(Cl)c1Cl [B6.2, isotianil]
Efficacy in % found ([2]; Table 6b, 100 ppm a.i.): 38% | Efficacy in % found (Alternaria solani; Table 3b, 50 ppm): 27%

COCC(=O)N(c1c(C)cccc1C)[C@H](C)C(=O)OC [B12.10, mefenoxam]
Efficacy in % found ([2]; Table 6f, 400 ppm a.i.): 25% | Efficacy in % found (Leptosphaeria nodorum; application rate 100 ppm, wheat, preventive, evaluated 8 days after inoculation): 0%

CCO[PH](=O)O [B15.24, fosetyl-Al]
Efficacy in % found (Venturia inaequalis; Table 2a, 50 ppm a.i.): 0% | Efficacy in % found (Alternaria solani; Table 3a, 50 ppm a.i.): 40% | Efficacy in % found (Sphaerotheca fuliginea; Table 4a, 50 ppm a.i.): 0% | Efficacy in % found (Sphaerotheca fuliginea; Table 4d, 12.5 ppm a.i.): 0%

Cn1c(=O)c2sc3c(=O)n(C)c(=O)c3sc2c1=O [B15.60, 2,6-dimethyl-1H,5H-[1,4]dithiino[2,3-c:5,6-c′]dipyrrole-1,3,5,7(2H,6H)-tetrone]
pest or weed control at 50 ppm (Alternaria solani; Alternaria solani, 72 h, Table 3d, 50 ppm, read-out: Efficacy in % found): 0%

CCN(C)C=Nc1cc(C)c(Oc2nc(Cc3ccc(Cl)cc3)ns2)cc1C [B15.78, N′-(4-{[3-(4-chlorobenzyl)-1,2,4-thiadiazol-5-yl]oxy}-2,5-dimethylphenyl)-N-ethyl-N-methylimidoformamide]
pest or weed control at 5 ppm (Venturia inaequalis; Venturia inaequalis, 240 h, read-out: Efficacy in % found, Table 2f, 5 ppm a.i.): 16% | pest or weed control at 62.5 ppm (Puccinia triticina; Puccinia triticina, 192 h, application rate 62.5 ppm a.i., read-out: Efficacy in % found): 57%

folpet [B5.16]
Efficacy in % found (Venturia inaequalis; Table 2a, 12.5 ppm a.i.): 47% | Efficacy in % found (Venturia inaequalis; Table 2e, 10 ppm a.i.): 45% | Efficacy in % found ([1]; Table 8f, 200 ppm a.i.): 50% | Efficacy in % found (Leptosphaeria nodorum; application rate 400 ppm a.i., wheat, preventive, evaluated 8 days after inoculation): 44% | Efficacy in % found (Alternaria solani; Table 3e, 12.5 ppm): 39% | Efficacy in % found (Sphaerotheca fuliginea; Table 4a, 25 ppm a.i.): 0%

mancozeb [B5.23]
Efficacy in % found ([2]; Table 6c, 400 ppm): 0% | Efficacy in % found (Leptosphaeria nodorum; Table 9e, 100 ppm a.i.): 0% | Efficacy in % found (Phytophthora infestans; Table 1c, 50 ppm a.i.): 45% | Efficacy in % found (Alternaria solani; Table 3a, 50 ppm a.i.): 56% | Efficacy in % found (Alternaria solani; Table 3d, 50 ppm): 0% | Efficacy in % found (Sphaerotheca fuliginea; Table 4a, 25 ppm a.i.): 0%

propamocarb-HCl [B10.10]
Efficacy in % found (Venturia inaequalis; Table 2a, 50 ppm a.i.): 0% | Efficacy in % found ([2]; Table 6c, 400 ppm): 13% | Efficacy in % found (Alternaria solani; Table 3a, 50 ppm a.i.): 0% | Efficacy in % found (Sphaerotheca fuliginea; Table 4a, 50 ppm a.i.): 0% | Efficacy in % found (Sphaerotheca fuliginea; Table 4d, 50 ppm a.i.): 70%

propineb [B5.29]
Efficacy in % found ([2]; Table 6c, 400 ppm): 13% | Efficacy in % found (Phytophthora infestans; Table 1c, 50 ppm a.i.): 50% | Efficacy in % found (Alternaria solani; Table 3a, 50 ppm a.i.): 33% | Efficacy in % found (Alternaria solani; Table 3d, 50 ppm): 0% | Efficacy in % found (Sphaerotheca fuliginea; Table 4a, 50 ppm a.i.): 0% | Efficacy in % found (Sphaerotheca fuliginea; Table 4d, 50 ppm a.i.): 70%

spiroxamine [B1.46]
Efficacy in % found (Puccinia triticina; application rate 200 ppm a.i.): 0% | Efficacy in % found (Leptosphaeria nodorum; Table 9a, 200 ppm a.i.): 29% | Efficacy in % found (Leptosphaeria nodorum; application rate 200 ppm, wheat, preventive, evaluated 8 days after inoculation): 22% and 40% | Efficacy in % found (Sphaerotheca fuliginea; Table 4b, 25 ppm a.i.): 0%
